Data published in US8901118B2, “Compounds and methods for kinase modulation, and indications therefor” (Plexxikon Inc., priority 2010, dated 2014).

Key:
CYP2D6 = CYP2D6 (Homo sapiens, UniProt P10635); test: CYP2D6 inhibition (fluorescent substrate AMMC); format: in vitro ADME; conditions: read-out: Cyp IC50 2D6
Description: (§1) CYP (Cytochrome P450) enzymes are the major drug metabolizing enzymes present in the liver. The inhibition of CYP enzyme activity (IC50) for each of CYP1A2, CYP2C19, CYP2C9, CYP2D6, CYP3A4(BFC) and CYP3A4(BQ) is determined for compounds, where inhibition of metabolism of a known substrate leads to a decrease in the fluorescence of the metabolized product. The fluorescence of the product is monitored as a function of compound concentration. Compounds are dissolved in DMSO to a concentration of 100 mM. These are diluted 1 μL into 82 μL of acetonitrile. An 11 μL aliquot of this solution is then added to 204 μL of cofactor mix (1.3% NADPH Regeneration system Solution A, 1.04% NADPH Regeneration system Solution B from BD Biosciences, 5% acetonitrile and 0.05% DMSO). These are then serially diluted 1:1 (160 μL to 160 μL co-factor mix) for a total of 10 points. A 10 μL aliquot of this final mixture is dispensed into 384 well assay plates and incubated for 10 minutes at 37° C. […] Assay plates are incubated at 37° C. (CYP1A2-15 min; CYP2C9-45 min; CYP2C19, 2D6 and 3A4-30 min) and read in a Tecan Safire 2 plate reader (CYP1A2, 2C19 and 3A4 409 ex/460 em; CYP2C9 and 2D6 409 ex/530 em). The signal versus compound concentration is used to determine the IC50. The enzymes and substrates for this assay are obtained from BD Biosciences.

BCR-NTRK1 BaF3 cells = biological target: T1, BCR-NTRK1 BaF3 cells (Homo sapiens, UniProt P04629); test: BaF3 BCR-NTRK1 cell proliferation assay (ATPlite); format: cell-based; conditions: read-out: Inhibition of Cell Proliferation IC50, BCR/BaF3 TrkA
T1 construct: fused on or other part: P11274 (Breakpoint cluster region protein)
T1 sequence (P04629 510-781): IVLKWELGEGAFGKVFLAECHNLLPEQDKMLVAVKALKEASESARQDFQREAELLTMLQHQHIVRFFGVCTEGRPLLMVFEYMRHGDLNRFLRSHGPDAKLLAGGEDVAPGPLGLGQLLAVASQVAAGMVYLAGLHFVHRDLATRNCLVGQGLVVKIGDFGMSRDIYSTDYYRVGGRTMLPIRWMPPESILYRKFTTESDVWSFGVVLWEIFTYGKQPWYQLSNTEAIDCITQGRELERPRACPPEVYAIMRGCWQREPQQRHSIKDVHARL
Description: Compounds are assessed in a variety of cell based assays. For example BaF3 cells engineered with any of BCR-FMS, BCR-KIT, BCR-FLT3, BCR-NTRK1, BCR-NTRK2, and BCR-NTRK3, are used in cell proliferation assays to assess inhibitory activity of Fms, Kit, Flt-3, TrkA, TrkB, and TrkC, respectively. An MV-4-11 (leukemia) cell proliferation assay is used to assess inhibitory activity in Flt-3, and SKNSH (human neuroblastoma) cell proliferation assay is used to assess efficacy of Fms/Trk inhibitors. Additional cells may be assayed similarly to assess the efficacy of Fms/Trk inhibitors, such as MiaPaCa (human pancreatic cancer) and Capan-1 (human pancreatic carcinoma) cells. Reagent and assay conditions are as follows: • BaF3 cells: • Maintained in RPMI containing 10% FBS, 1% PenStrep, 1% NEAA, and 1% L-Glutamine, supplemented with 1 mg/mL G418 and 5% WEHI-CM (or recombinant murine IL-3). • Confluent cells are split 1:50 to 1:100 every 3-4 days. • MV-4-11 cells: • Maintained in Iscove's Modified Dulbecco's Medium containing 10% FBS. • Confluent cells are split 1:4 every 3-4 days. • SKNSH cells: RPMI containing 10% FBS. On day 1, cells are counted, then centrifuged in a conical tube for 5 minutes at 1000 rpm. The supernatant is removed and cells are re-suspended as follows: • BaF3: resuspend in growth media +1 mg/mL G418 (without WEHFIL-3) to 2×10^5 cells/mL. • MV-4-11: resuspend in growth media to 5×10^5 cells/mL. • SKNSH: resuspend in growth media to 2×10^4 cells/mL. The cells are plated (50 μL, 150 μL for SKNSH cells) in each well of a 96-well dish (Corning 3610) and incubated at 37° C. in 5% CO2 overnight, cells plated to a final concentration of cells as follows: • BaF3: 10,000 cells per well. • MV-4-11: 25,000 cells per well. • SKNSH: 3,000 cells per well. On day 2, compound at a maximum concentration of 5 mM is serially diluted 1:3 for a total of 8 point titration with DMSO as a control. A 1 μL aliquot of each dilution point is added to 249 μL growth media and 50 μL is added to a well containing cells, providing 10 μM compound for the maximum concentration point. The cells are incubated for 3 days at 37° C. in 5% CO2. For SKNSH cells, a 0.75 μL aliquot of appropriate dilution in DMSO is added to 150 μL of cells. On day 5, ATPlite 1 step Luminescence Assay System (Perkin Elmer #6016739) is brought to room temperature along with the cell cultures. ATPlite is added to each well as follows: • BaF3: 25 μL per well. • MV-4-11: 40 μL per well. • SKNSH: 20 μL per well. The cells are incubated at room temperature for 10 minutes, then luminescence is read on Safire reader. The measured luminescence correlates directly with cell number, such that the reading as a function of compound concentration is used to determine the IC50 value.
It is understood that the results of these assays may vary as assay conditions are varied. Inhibition levels determined under the conditions described herein represent a relative activity for the compounds tested under the specific conditions employed. The cell based assays are likely to show variability due to the complexity of the system and the sensitivity thereof to any changes in the assay conditions. […] Results for compounds that are tested and show substantially no inhibition below the highest tested concentration are represented as “-” in the tables below. In some instances, the compounds were not tested in all of the assays, or assay results were not valid, as indicated by NA in the tables below.

CYP1A2 = biological target: T2, CYP1A2 (Homo sapiens, UniProt P05177); test: CYP1A2 inhibition (fluorescent substrate CEC); format: in vitro ADME; conditions: read-out: Cyp IC50 1A2
T2 sequence (P05177 1-516): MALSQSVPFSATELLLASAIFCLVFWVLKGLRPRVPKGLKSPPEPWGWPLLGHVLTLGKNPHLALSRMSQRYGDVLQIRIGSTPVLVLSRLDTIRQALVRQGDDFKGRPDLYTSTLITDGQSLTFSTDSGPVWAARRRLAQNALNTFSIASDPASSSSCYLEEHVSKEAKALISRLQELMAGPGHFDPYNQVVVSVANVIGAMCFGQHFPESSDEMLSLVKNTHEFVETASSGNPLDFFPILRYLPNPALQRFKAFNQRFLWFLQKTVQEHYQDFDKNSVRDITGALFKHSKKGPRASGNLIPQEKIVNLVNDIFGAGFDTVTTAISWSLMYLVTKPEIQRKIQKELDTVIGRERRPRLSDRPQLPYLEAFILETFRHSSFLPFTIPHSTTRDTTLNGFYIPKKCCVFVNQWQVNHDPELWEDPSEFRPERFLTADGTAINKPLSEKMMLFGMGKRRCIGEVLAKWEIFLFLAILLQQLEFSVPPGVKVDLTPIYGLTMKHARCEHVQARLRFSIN
Description: as §1

Chain of CYP2D6 (P10635 whole entry): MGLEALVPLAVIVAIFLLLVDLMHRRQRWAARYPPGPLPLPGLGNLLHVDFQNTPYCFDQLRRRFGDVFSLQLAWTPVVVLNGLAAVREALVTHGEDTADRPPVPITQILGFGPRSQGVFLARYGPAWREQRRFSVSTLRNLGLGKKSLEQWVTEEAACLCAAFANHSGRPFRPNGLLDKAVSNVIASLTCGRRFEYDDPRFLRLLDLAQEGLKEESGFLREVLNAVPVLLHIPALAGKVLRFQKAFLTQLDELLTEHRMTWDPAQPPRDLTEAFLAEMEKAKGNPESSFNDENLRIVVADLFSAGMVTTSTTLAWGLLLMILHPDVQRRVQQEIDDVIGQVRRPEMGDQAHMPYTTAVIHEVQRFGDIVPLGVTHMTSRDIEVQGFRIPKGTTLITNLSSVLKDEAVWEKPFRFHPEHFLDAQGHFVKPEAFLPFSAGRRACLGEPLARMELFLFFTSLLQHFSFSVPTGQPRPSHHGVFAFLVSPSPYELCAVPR

Row | IC50 (CYP2D6) | IC50 (BCR-NTRK1 BaF3 cells) | IC50 (CYP1A2) | SMILES
1 | > 10 µM | < 0.01 µM | 5 to 10 µM | CCC(CC)Nc1ncnc2[nH]cc(C(=O)c3ccc(Nc4ccc(OC)nc4)nc3F)c12 [Compound P-4077, [4-(1-ethylpropylamino)-7H-pyrrolo[2,3-d]pyrimidin-5-yl]-[2-fluoro-6-[(6-methoxy-3-pyridyl)amino]-3-pyridyl]methanone]
2 | > 10 µM | < 0.01 µM | > 10 µM | CNc1ncnc2[nH]cc(C(=O)c3ccc(Nc4ccc(OC)nc4)nc3F)c12 [Compound P-4083, [2-fluoro-6-[(6-methoxy-3-pyridyl)amino]-3-pyridyl]-[4-(methylamino)-7H-pyrrolo[2,3-d]pyrimidin-5-yl]methanone]
3 | > 10 µM | < 0.1 µM | > 10 µM | COc1ccc(Nc2ccc(C(=O)c3c[nH]c4ncnc(NCC(F)(F)F)c34)c(F)n2)cn1 [Compound P-4084, [2-fluoro-6-[(6-methoxy-3-pyridyl)amino]-3-pyridyl]-[4-(2,2,2-trifluoroethylamino)-7H-pyrrolo[2,3-d]pyrimidin-5-yl]methanone]
4 | > 10 µM | < 1 µM | > 10 µM | O=C(c1ccc(NC2CCC(F)(F)CC2)nc1)c1c[nH]c2ncnc(NCC(F)(F)F)c12 [Compound P-4087, [6-[(4,4-difluorocyclohexyl)amino]-3-pyridyl]-[4-(2,2,2-trifluoroethylamino)-7H-pyrrolo[2,3-d]pyrimidin-5-yl]methanone]

Continued, compound first:

Row | SMILES | IC50 (CYP2D6) | IC50 (BCR-NTRK1 BaF3 cells) | IC50 (CYP1A2)
5 | CCC(C)Nc1ncnc2[nH]cc(C(=O)c3ccc(Nc4ccc(OC)nc4)nc3F)c12 (stereo not drawn) [Compound P-4078, [2-fluoro-6-[(6-methoxy-3-pyridyl)amino]-3-pyridyl]-[4-(sec-butylamino)-7H-pyrrolo[2,3-d]pyrimidin-5-yl]methanone] | > 10 µM | < 0.01 µM | 5 to 10 µM
6 | COCCCNc1ncnc2[nH]cc(C(=O)c3ccc(Nc4ccc(OC)nc4)nc3F)c12 [Compound P-4079, [2-fluoro-6-[(6-methoxy-3-pyridyl)amino]-3-pyridyl]-[4-(3-methoxypropylamino)-7H-pyrrolo[2,3-d]pyrimidin-5-yl]methanone] | > 10 µM | < 0.01 µM | > 10 µM
7 | CCCCNc1ncnc2[nH]cc(C(=O)c3ccc(Nc4ccc(OC)nc4)nc3F)c12 [Compound P-4080, [4-(butylamino)-7H-pyrrolo[2,3-d]pyrimidin-5-yl]-[2-fluoro-6-[(6-methoxy-3-pyridyl)amino]-3-pyridyl]methanone] | > 10 µM | < 0.01 µM | > 10 µM
8 | CCNc1ncnc2[nH]cc(C(=O)c3ccc(Nc4ccc(OC)nc4)nc3F)c12 [Compound P-4081, [4-(ethylamino)-7H-pyrrolo[2,3-d]pyrimidin-5-yl]-[2-fluoro-6-[(6-methoxy-3-pyridyl)amino]-3-pyridyl]methanone] | > 10 µM | < 0.01 µM | > 10 µM
9 | COc1ccc(Nc2ccc(C(=O)c3c[nH]c4ncnc(NC5CCCCC5)c34)c(F)n2)cn1 [Compound P-4082, [4-(cyclohexylamino)-7H-pyrrolo[2,3-d]pyrimidin-5-yl]-[2-fluoro-6-[(6-methoxy-3-pyridyl)amino]-3-pyridyl]methanone] | > 10 µM | < 0.01 µM | > 10 µM
10 | O=C(c1ccc(NC2CCC(F)(F)CC2)nc1)c1c[nH]c2ncnc(NC3CC3)c12 [Compound P-4088, [4-(cyclopropylamino)-7H-pyrrolo[2,3-d]pyrimidin-5-yl]-[6-[(4,4-difluorocyclohexyl)amino]-3-pyridyl]methanone] | > 10 µM | < 0.1 µM | > 10 µM
11 | CNc1ncnc2[nH]cc(C(=O)c3ccc(NC4CCC(F)(F)CC4)nc3)c12 [Compound P-4089, [6-[(4,4-difluorocyclohexyl)amino]-3-pyridyl]-[4-(methylamino)-7H-pyrrolo[2,3-d]pyrimidin-5-yl]methanone] | > 10 µM | < 1 µM | > 10 µM
